Data set [1] addresses T1, 11beta-HSD1 enzyme (Homo sapiens, UniProt P28845).
T1 construct: made in house; host or cells: Saccharomyces cerevisiae
Briefly: SPA (Scintillation Proximity Assay) of 11beta-HSD1 inhibition, 384 well format. The class given is biochemical. The method, then: The compounds according to the invention were the subject of pharmacological tests for determining their inhibitory activity on the 11beta-HSD1 enzyme which is an enzyme involved in lipid metabolism or glucose metabolism.
These tests consisted in measuring the in vitro inhibitory activity of the compounds of the invention by virtue of an SPA (Scintillation Proximity Assay) in 384 well format. The recombinant 11beta-HSD1 protein was produced in the yeast S. cerevisiae. The reaction was carried out by incubating the enzyme in the presence of ^3H-cortisone and NADPH, in the absence or in the presence of an increasing concentration of inhibitor. SPA beads coupled to an anti-mouse antibody, pre-incubated with an anti-cortisol antibody, made it possible to measure the amount of cortisol formed during the course of the reaction.
The inhibitory activity with respect to the 11beta-HSD1 enzyme is given by the concentration which inhibits 50% of the activity of 11beta-HSD1 (IC50).

Data set [2] addresses T2, 11βHSD1 in the eyes (Homo sapiens, UniProt P28845).
T2 construct: The functional activity of 11βHSD1 in the eyes has been evaluated by studying the action of carbenoxolone in normal volunteers; host or cells: ocular tissue of human volunteers (in vivo)
The settings on record: normal volunteers; after seven days of treatment; cited from earlier work.

Setting [3] is: recombinant 11beta-HSD1 produced in yeast S. cerevisiae, 3H-cortisone and NADPH, read-out: concentration which inhibits 50% of the activity of 11beta-HSD1 (IC50).

Each structure is given as a SMILES string. “And” between values parts separate entries of the source, which are not always exact repeats. Equal values may be shown once. Where a name gives a salt, the structure may show the parent alone. Read-outs that look alike come from different tables or passages of the source.

T1 sequence (P28845 whole entry, species assumed): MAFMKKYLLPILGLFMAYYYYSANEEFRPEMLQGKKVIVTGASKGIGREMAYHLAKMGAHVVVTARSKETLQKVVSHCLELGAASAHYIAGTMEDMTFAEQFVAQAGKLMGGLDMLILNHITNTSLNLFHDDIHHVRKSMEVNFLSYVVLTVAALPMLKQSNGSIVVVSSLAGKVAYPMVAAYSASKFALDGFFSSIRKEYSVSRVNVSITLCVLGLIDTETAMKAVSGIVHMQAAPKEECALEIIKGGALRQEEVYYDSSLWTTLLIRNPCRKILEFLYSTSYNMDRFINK
T2 sequence (P28845 whole entry): as the sequence (P28845 whole entry, species assumed) above

As for `O=C(N1CCCc2ccccc21)N1C2CCC1CC(c1ccccc1)C2` (centres unmarked) [Compound 7, (3,4-dihydro-2H-quinolin-1-yl)-(3-phenyl-8-azabicyclo-[3.2.1]oct-8-yl)methanone], the melting point was 133 to 134 °C. Also, the IC50 in data set [1] (setting [3]) came out at 0.004 µM.
Take `O=C(N1CCCc2ccccc21)N1C2CCC1CC(c1ccc(F)nc1)C2` (centres unmarked) (as salt: HCl): the melting point is 98 to 99 °C.
The same measure, in the same setting: then `O=C(N1CCCc2ccccc21)N1C2CCC1CC(c1cccnc1)C2` (centres unmarked) (as salt: HCl) [Compound 4, 1-[(3-pyridin-3-yl-8-azabicyclo[3.2.1]oct-8-yl)carbonyl]-1,2,3,4-tetrahydroquinoline Hydrochloride], with 218 to 220 °C and 218 to 222 °C.
In the case of `CC1(C)[C@@H](OC(=O)CCC(=O)O)CC[C@]2(C)[C@H]3C(=O)C=C4[C@@H]5C[C@@](C)(C(=O)O)CC[C@]5(C)CC[C@@]4(C)[C@]3(C)CC[C@@H]12` [carbenoxolone], in data set [2], the “IOP is reduced by” value is 18%.
As to `O=C(N1CCCc2ccccc21)N1C2C=C(c3cccc4[nH]ccc34)CC1CC2` (centres unmarked) [Compound 28, (3,4-dihydro-2H-quinolin-1-yl)-[3-(1H-indol-4-yl)-8-azabicyclo[3.2.1]oct-2-en-8-yl]methanone], the IC50 in data set [1] (setting [3]) was found to be 0.19 µM.
In the case of `O=C(N1CCCc2ccccc21)N1C2CCC1CC(c1cccnc1)C2` (centres unmarked) [Compound 4, 1-[(3-pyridin-3-yl-8-azabicyclo[3.2.1]oct-8-yl)carbonyl]-1,2,3,4-tetrahydroquinoline Hydrochloride], the IC50 in data set [1] was determined as 0.019 µM.
Still for that read-out and setting: with `O=C(N1CCCc2ccccc21)N1C2C=C(c3cccnc3F)CC1CC2` (centres unmarked) [Compound 13, (3,4-dihydro-2H-quinolin-1-yl)-[3-(2-fluoropyridin-3-yl)-8-azabicyclo[3.2.1]oct-2-en-8-yl]methanone] the figure was 0.122 µM.
